Key:
men and women with OAB = assay: Phase 2b study in OAB, efficacy (voiding diary); type: in vivo, human; details: tolterodine ER 4 mg once daily
Excerpt: Part 2 was designed to continue to assess the safety and efficacy of concomitant dosing. […] Subjects in both Part 1 and Part 2 had the option of enrolling in a 1-year extension. Participants were required to keep a voiding diary, recording the occurrence of each strong urge, total incontinence, and urge incontinence episode. Efficacy data for Part 1 and Part 2 are summarized herein.
The total number of urgency incontinence episodes must have exceeded the total number of stress incontinence episodes for all subjects.

[1] = test system: patients with overactive bladder
Excerpt: A placebo group was included in the main study, and a group that received tolterodine monotherapy was included in the main study and in the extension.

[2] = test system: patients with overactive bladder; assay: Phase 2b 52-week extension safety; type: in vivo, human; details: tolterodine ER 4 mg
Excerpt: There were no deaths reported during the study.

patients with OAB = assay: Phase 2b vital sign changes (HR, SBP, DBP); type: in vivo, human; details: Tolterodine 4 mg
Excerpt: None led to discontinuation. The overall incidence of orthostatic symptoms was low.
Small differences in the percent of subjects exceeding categorical heart rate and blood pressure thresholds for vibegron were similar to those in the tolterodine arm.

healthy subjects = assay: thorough QT single oral dose study; type: in vivo, human; details: single dose of moxifloxacin 400 mg
[3] = mass balance study with [14C]vibegron in healthy subjects; details: human plasma at 2 and 4 hr
[4] = Tolterodine ER 4 mg, N = 257, first 12 weeks

Cc1ccc(O)c([C@H](CCN(C(C)C)C(C)C)c2ccccc2)c1 [Tolterodine ER, tolterodine]
Total Incontinence Episodes, change from baseline Week 8, mean (men and women with OAB; OAB Wet subjects): −1.80
Total Incontinence Episodes, daily number, Week 8 mean (men and women with OAB; OAB Wet subjects): 1.32
Total Incontinence Episodes, difference from placebo Week 8, LS means (men and women with OAB; OAB Wet subjects): −0.34
Urgency Incontinence Episodes, change from baseline Week 8, mean (men and women with OAB; OAB Wet subjects): −1.67
Urgency Incontinence Episodes, daily number, Week 8 mean (men and women with OAB; OAB Wet subjects): 1.15
Urgency Incontinence Episodes, difference from placebo Week 8, LS means (men and women with OAB; OAB Wet subjects): −0.46
Micturitions, change from baseline Week 8, mean (men and women with OAB; Part 1): −1.73
Micturitions, daily number, Week 8 mean (men and women with OAB; Part 1): 9.24
Micturitions, difference from placebo Week 8, LS means (men and women with OAB; Part 1): −0.54
Urgency Episodes, change from baseline Week 8, mean (men and women with OAB; Part 1): −2.52
Urgency Episodes, daily number, Week 8 mean (men and women with OAB; Part 1): 3.91
Urgency Episodes, difference from placebo Week 8, LS means (men and women with OAB; Part 1): −0.94
change from baseline in volume voided per micturition, difference from placebo in LS means (men and women with OAB; Week 8): 30.77 mL
frequency of injuries ([1]; Phase 2 program): 2.1%
Accidental overdose, % [1, 4]: (2.3) %
Alanine aminotransferase increased, % [1, 4]: (0.4) %
Arthralgia, % [1, 4]: (1.2) %
Aspartate aminotransferase increased, % [1, 4]: (0.0) %
Constipation, % [1, 4]: (1.9) %
Diarrhea, % [1, 4]: (3.5) %
Discontinuation due to AE, % [1, 4]: (1.6) %
Dizziness, % [1, 4]: (1.9) %
Drug-related AE, % [1, 4]: (16.3) %
Dry eye, % [1, 4]: (3.9) %
Dry mouth, % [1, 4]: (8.6) %
Dysuria, % [1, 4]: (1.2) %
Fatigue, % [1, 4]: (2.3) %
Headache, % [1, 4]: (3.5) %
Nasopharyngitis, % [1, 4]: (1.6) %
Nausea, % [1, 4]: (2.3) %
Osteoarthritis, % [1, 4]: (0.0) %
Pain in extremity, % [1, 4]: (0.4) %
Serious AE, % [1, 4]: (1.2) %
Sinusitis, % [1, 4]: (0.4) %
Urinary tract infection, % [1, 4]: (4.7) %
≥1 AE, % [1, 4]: (45.1) %
incidence of dry mouth compared to placebo or vibegron monotherapy groups ([1]; groups that received tolterodine (alone or with vibegron), main study): higher
SAEs reported ([1]; tolterodine 4 mg, main study): 3
drug-related SAE [2]: one drug-related SAE of ileus paralytic
incidence of dry mouth compared to the other treatment groups [2]: higher
DBP change from baseline, mean (95% CI) Max, week 1 to 8 (patients with OAB): 5.19 (4.26, 6.13) mm Hg
DBP change from baseline, mean (95% CI), week 1 (patients with OAB): −0.12 (−1.10, 0.86) mm Hg
HR change from baseline, mean (95% CI) maximum, week 1 to 8 (patients with OAB): 5.66 (4.69, 6.63) bpm
HR change from baseline, mean (95% CI), week 1 (patients with OAB): 0.68 (−0.31, 1.67) bpm
SBP change from baseline, mean (95% CI) maximum, week 1 to 8 (patients with OAB): 7.29 (6.01, 8.57) mm Hg
SBP change from baseline, mean (95% CI), week 1 (patients with OAB): 0.04 (−1.36, 1.43) mm Hg

COc1c(N2C[C@@H]3CCCN[C@@H]3C2)c(F)cc2c(=O)c(C(=O)O)cn(C3CC3)c12 [moxifloxacin, reference compound]
effect on QTcF (healthy subjects): statistically significant effect

O=C(O)C1OC(OC(c2ccccc2)C2CCC(Cc3ccc(NC(=O)C4CCc5nccc(=O)n54)cc3)N2)C(O)C(O)C1O (stereo not drawn) [M7]
share of total circulating drug-related material [3]: 12-14%
